Tests used:
[1] = clinical studies; cited from earlier work
[2] = Noninvasive total blood hemoglobin in immoderate iron deficient subjects before and after 2 weeks of iron chelate; assay type: in vivo, human; settings: immoderate iron deficient subjects 2-7 years of age, baseline average 10.03 g/dL, 1 mL (15 mg) daily, Masimo rainbow SET SpHb
Description: To examine this, the inventors have recruited a population (2-7 years of age) of immoderate iron deficient subjects having an average hemoglobin level of 10.03 g/dL. Total blood hemoglobin levels were measured noninvasively at baseline (time 0) and following treatment (after 2 weeks) from the index finger of subjects using Masimo rainbow SET SpHb technology. Subjects were instructed to take 1 mL of iron bis-glycinate chelate (15 mg) daily.

Row | Compound | hemoglobin and ferritin indices compared with ferrous sulfate or ferrous ascorbate [1] | average total blood hemoglobin level following treatment ([2]; after two weeks) [g/dL] | increase of total blood hemoglobin level, on average ([2]; two weeks, index finger) [%]
1 | NCC(=O)[O-].NCC(=O)[O-].[Fe+2] [Ferrochel, ferrous bis glycinate] | improved hemoglobin and ferritin indices at lower dosages than ferrous sulfate or ferrous ascorbate |  | 
2 | NCC(=O)[O-].NCC(=O)[O-].[Fe+2] [iron bis-glycinate chelate] |  | 11.13 | 11

— patent US20210393678A1, “PERSONALIZED FOOD PRODUCTS FOR ENSURING ADEQUATE IRON INTAKE” (MY-OR D[…]., priority 2018, published 2021)
